According to paper PMC8390788 (Bioscience Reports, 2021):
“Also recorded” adds a separate entry of the source. No end group written: not given here.

Experiments:
[1] = Enzymatic stability in murine plasma; type: in vitro ADME; settings: 37°C, HPLC separation, MS analysis, percentage from peak areas; for remaining at 2 h / remaining at 4 h / remaining at 8 h: mouse; for remaining at 2 h: 2-h incubation, read-out: Percentage intact peptide remaining (%) 2 h; for remaining at 4 h / Percentage intact peptide remaining (%) 4 h: 4-h incubation; for remaining at 4 h: read-out: Percentage intact peptide remaining (%) 4 h; for remaining at 8 h / Percentage intact peptide remaining (%) 8 h: 8-h incubation; for remaining at 8 h: read-out: Percentage intact peptide remaining (%) 8 h
Description: When incubated together with murine plasma, Ac-NT/XN-8-Gln remained 100% intact up to and including 4 h, and over 90% peptide intact over an extended 8-h incubation period (Table 1).

BRIN-BD11 cells = assay: In vitro insulin secretion from BRIN-BD11 cells (radioimmunoassay); type: cell-based; settings: 20 min; for Effect on glucose-stimulated insulin secretion: 16.7 mM glucose, n=8 (Figure 1B); for Effect on GIP-induced insulin secretion: with 10^−7 M GIP, 5.6 mM glucose, n=8 (Figure 1C); for Effect on GLP-1 evoked insulin release: with 10^−7 M GLP-1, 5.6 mM glucose, n=8 (Figure 1D)
Description: The in vitro insulin secretory activity of test peptides was examined in BRIN-BD11 cells, cultured and maintained as previously described. For experimentation, BRIN-BD11 cells were seeded in 24-well plates at a cell density of 150000 cells/well, and allowed to attach overnight at 37°C. Following pre-incubation with Krebs–Ringer bicarbonate buffer (KRBB) (pH 7.4) supplemented with 0.5% (w/v) BSA and 1.1 mM glucose (40 min; 37°C), cells were then incubated with test peptides alone (10^−6–10^−12 M), or in combination with either GIP or GLP-1 (10^−7 M), at 5.6 or 16.7 mM glucose, as appropriate for 20 min. […] Aliquots of assay buffer (200 μl) were collected and stored at −20°C prior to assessment of insulin concentrations by an in-house radioimmunoassay. To confirm insulin secretory activity of Ac-NT/XN-8-Gln, pancreatic islets were isolated from lean C57BL/6 mice by collagenase digestion, as described previously and insulin secretion determined as outlined above (16.7 mM glucose), but over a 60-min test incubation period.
Figure 1 Acute effects of acetyl-neurotensin(8-13), xenin-8-Gln, Ac-NT/XN-8-Gln alone and in combination with GIP or GLP-1, on insulin release from BRIN-BD11 cells and isolated mouse islets BRIN-BD11 cells were incubated (20 min) with a range of concentrations (10^−12 to 10^−6 M) of acetyl-neurotensin(8-13), xenin-8-Gln or Ac-NT/XN-8-Gln alone (A,B) or in combination with GIP (C) or GLP-1 (D) in the presence of (A,C,D) 5.6 or (B) 16.7 mM glucose. (E) Murine islets were incubated (60 min) with Ac-NT/XN-8-Gln (10^−8 and 10^−6 M) in the presence 16.7 mM glucose. (A–E) Insulin release was measured using radioimmunoassay. Values represent means ± SEM (n=8 for (A–D) and n=5 for (E)). *P<0.05 and ***P<0.001 compared with respective glucose controls. ^∆P<0.05, ^∆∆P<0.01 and ^∆∆∆P<0.001 compared with respective 10^−7 M GIP or GLP-1 control.

BRIN-BD11 β-cells = assay: β-cell proliferation, Ki-67 immunostaining; type: cell-based; settings: 18 h, 10^−8 and 10^−6 M, n=3–4, vs media control (Figure 2A)
Description: BRIN-BD11 β-cells were used to investigate effects of test peptides (10^−8 and 10^−6 M) on β-cell proliferation and protection against apoptosis. GLP-1 was employed as a positive control for all studies. Ki-67 immunostaining was used to assess effects on proliferation. Briefly, cells were seeded on to coverslips (40000 cells per coverslip) and cultured overnight (18 h; 37°C), in the presence of test peptides (10^−8 and 10^−6 M). Cells were then washed with PBS, and fixed using 4% paraformaldehyde. Following antigen retrieval with citrate buffer (90°C for 20 min), tissues were blocked using 1.1% BSA for 30 min. Cells were then incubated with Ki-67 primary antibody (1:500; Abcam, ab15580), followed by Alexa Fluor® 488 secondary antibody (1:400, Invitrogen, A-11008). Coverslips were washed with PBS, mounted on slides for viewing using a fluorescent microscope (Olympus System Microscope) and photographed by DP70 camera adapter system. Proliferation frequency was expressed as percentage of total cells analysed. For analysis of the ability of test peptides (10^−8 and 10^−6 M) to protect against apoptosis, cells were seeded as above, but apoptosis evoked through activation of caspase 3 and 7 activity by a luminogenic, tetrapeptide sequence DEVD Caspase-Glo® 3/7 substrate. Caspase induced cleavage of the substrate was then assessed by an ApoLive-Glow™ Multiplex assay kit, according to the protocol provided by the manufacturer (Promega, Wisconsin, U.S.A.).
(A) Proliferation was measured using Ki-67 immunocytochemistry. (B) Caspase-3/7 activation was detected by luminescence.

isolated mouse islets = assay: Insulin secretion from isolated mouse islets; type: cell-based, C57BL/6 mice; settings: 16.7 mM glucose, 60 min, peptide 10^−8 and 10^−6 M, n=5 (Figure 1E)
Description: The in vitro insulin secretory activity of test peptides was examined in BRIN-BD11 cells, cultured and maintained as previously described. For experimentation, BRIN-BD11 cells were seeded in 24-well plates at a cell density of 150000 cells/well, and allowed to attach overnight at 37°C. Following pre-incubation with Krebs–Ringer bicarbonate buffer (KRBB) (pH 7.4) supplemented with 0.5% (w/v) BSA and 1.1 mM glucose (40 min; 37°C), cells were then incubated with test peptides alone (10^−6–10^−12 M), or in combination with either GIP or GLP-1 (10^−7 M), at 5.6 or 16.7 mM glucose, as appropriate for 20 min. […] To confirm insulin secretory activity of Ac-NT/XN-8-Gln, pancreatic islets were isolated from lean C57BL/6 mice by collagenase digestion, as described previously and insulin secretion determined as outlined above (16.7 mM glucose), but over a 60-min test incubation period.
Figure 1 Acute effects of acetyl-neurotensin(8-13), xenin-8-Gln, Ac-NT/XN-8-Gln alone and in combination with GIP or GLP-1, on insulin release from BRIN-BD11 cells and isolated mouse islets BRIN-BD11 cells were incubated (20 min) with a range of concentrations (10^−12 to 10^−6 M) of acetyl-neurotensin(8-13), xenin-8-Gln or Ac-NT/XN-8-Gln alone (A,B) or in combination with GIP (C) or GLP-1 (D) in the presence of (A,C,D) 5.6 or (B) 16.7 mM glucose. […] (A–E) Insulin release was measured using radioimmunoassay. […]

Row | Molecule | remaining at 2 h [1] [%] | remaining at 4 h [1] [%] | remaining at 8 h [1] [%] | Effect on glucose-stimulated insulin secretion (BRIN-BD11 cells) | Effect on GIP-induced insulin secretion (BRIN-BD11 cells) | Effect on GLP-1 evoked insulin release (BRIN-BD11 cells) | β-cell proliferation (Ki-67) (BRIN-BD11 β-cells) | Percentage intact peptide remaining (%) 4 h [1] | Percentage intact peptide remaining (%) 8 h [1] | Insulin release from isolated mouse islets (isolated mouse islets)
1 | CC[C@H](C)[C@H](NC(=O)[C@H](Cc1ccc(O)cc1)NC(=O)[C@@H]1CCCN1C(=O)[C@H](CCCNC(=N)N)NC(=O)[C@H](CCCNC(=N)N)NC(C)=O)C(=O)N[C@@H](CC(C)C)C(=O)O [Acetyl-neurotensin(8-13)] | 98.2 | 94.4 | 89.6 | inhibited | no effect | inhibit | augmented | – | – | –
2 | Ac-RRPYILHPQQPWIL [Ac-NT/XN-8-Gln] | 100 | – | 91.7 | – | augmented; also recorded: similar, but more prominent, bioactivity profile | perturb | augmented | 100% | over 90% | Prominent (P<0.01) insulinotropic actions
3 | HPQQPWIL [Xenin-8-Gln] | 100 | 98.3 | – | retained significant insulinotropic actions | augmented | no impact | devoid of benefits | – | 94.1% | –
4 | glucagon-like peptide-1 [Native GLP-1] | – | – | – | – | – | – | – | fully degraded | – | –
